Experimental data published in ChEMBL document CHEMBL5244230, “Artemisinin-derived hybrids and their anticancer activity” (Eur J Med Chem, 2020).

tested on: HT-29; test: Antiproliferative activity against human HT-29 cells assessed as reduction in cell viability measured for 72 hrs by MTT assay; type: functional, cell-based; conditions: HT-29, 72 h

Row | SMILES | IC50 [nM]
1 | COc1ccc(/C=C/C(=O)c2ccc(COCC(=O)N[C@H]3O[C@@H]4O[C@@]5(C)CC[C@H]6[C@H](C)CC[C@@H]([C@H]3C)[C@@]46OO5)cc2)c(OC)c1OC | 90
2 | C[C@H]1[C@H](NC(=O)COCc2ccc(C(=O)/C=C/c3cccc(Cl)c3Cl)cc2)O[C@@H]2O[C@@]3(C)CC[C@H]4[C@H](C)CC[C@@H]1[C@@]24OO3 | 100
3 | C[C@H]1[C@H](NC(=O)COCc2ccc(C(=O)/C=C/c3ccc(Cl)cc3F)cc2)O[C@@H]2O[C@@]3(C)CC[C@H]4[C@H](C)CC[C@@H]1[C@@]24OO3 | 100

tested on: HeLa; test: Cytotoxicity against human HeLa cells assessed as cell growth inhibition measured after 48 hrs by MTT assay; type: functional; conditions: not given

Row | SMILES | GI50 [nM]
4 | C[C@H]1[C@H](n2cc(-c3ccccc3)nn2)O[C@@H]2O[C@@]3(C)CC[C@H]4[C@H](C)CC[C@@H]1[C@@]24OO3 | 50
5 | C[C@@H]1[C@@H](n2cc(-c3ccc(F)cc3)nn2)O[C@@H]2O[C@@]3(C)CC[C@H]4[C@H](C)CC[C@@H]1[C@@]24OO3 | 30
6 | COc1ccc(-c2cnnn2[C@@H]2O[C@@H]3O[C@@]4(C)CC[C@H]5[C@H](C)CC[C@@H]([C@H]2C)[C@@]35OO4)cc1 | 40
7 | C[C@H]1[C@H](n2nncc2-c2ccc(F)cc2)O[C@@H]2O[C@@]3(C)CC[C@H]4[C@H](C)CC[C@@H]1[C@@]24OO3 | 40

tested on: not listed separately; test: Cytotoxicity against human U87 cells assessed as cell growth inhibition measured after 48 hrs by MTT assay; type: functional, U-87MG ATCC; conditions: U-87 MG

Row | SMILES | GI50 [nM]
8 | C[C@H]1[C@H](n2cc(-c3ccccc3)nn2)O[C@@H]2O[C@@]3(C)CC[C@H]4[C@H](C)CC[C@@H]1[C@@]24OO3 | 50
9 | C[C@@H]1[C@@H](n2cc(-c3ccc(F)cc3)nn2)O[C@@H]2O[C@@]3(C)CC[C@H]4[C@H](C)CC[C@@H]1[C@@]24OO3 | 30
10 | COc1ccc(-c2cnnn2[C@@H]2O[C@@H]3O[C@@]4(C)CC[C@H]5[C@H](C)CC[C@@H]([C@H]2C)[C@@]35OO4)cc1 | 40
11 | C[C@H]1[C@H](n2nncc2-c2ccc(F)cc2)O[C@@H]2O[C@@]3(C)CC[C@H]4[C@H](C)CC[C@@H]1[C@@]24OO3 | 40

tested on: A549; test: Antiproliferative activity against human A549 cells assessed as reduction in cell viability measured for 72 hrs by MTT assay; type: functional, cell-based; conditions: A549, 72 h

Row | SMILES | IC50 [nM]
12 | COc1ccc(/C=C/C(=O)c2ccc(COCC(=O)N[C@H]3O[C@@H]4O[C@@]5(C)CC[C@H]6[C@H](C)CC[C@@H]([C@H]3C)[C@@]46OO5)cc2)c(OC)c1OC | 90
13 | C[C@H]1[C@H](NC(=O)COCc2ccc(C(=O)/C=C/c3cccc(Cl)c3Cl)cc2)O[C@@H]2O[C@@]3(C)CC[C@H]4[C@H](C)CC[C@@H]1[C@@]24OO3 | 100
14 | C[C@H]1[C@H](NC(=O)COCc2ccc(C(=O)/C=C/c3ccc(Cl)cc3F)cc2)O[C@@H]2O[C@@]3(C)CC[C@H]4[C@H](C)CC[C@@H]1[C@@]24OO3 | 100

tested on: NCI-H460; test: Antiproliferative activity against human NCI-H460 cells assessed as reduction in cell viability measured for 72 hrs by MTT assay; type: functional, cell-based; conditions: NCI-H460, 72 h

Row | SMILES | IC50 [nM]
15 | COc1ccc(/C=C/C(=O)c2ccc(COCC(=O)N[C@H]3O[C@@H]4O[C@@]5(C)CC[C@H]6[C@H](C)CC[C@@H]([C@H]3C)[C@@]46OO5)cc2)c(OC)c1OC | 90
16 | C[C@H]1[C@H](NC(=O)COCc2ccc(C(=O)/C=C/c3cccc(Cl)c3Cl)cc2)O[C@@H]2O[C@@]3(C)CC[C@H]4[C@H](C)CC[C@@H]1[C@@]24OO3 | 100
17 | C[C@H]1[C@H](NC(=O)COCc2ccc(C(=O)/C=C/c3ccc(Cl)cc3F)cc2)O[C@@H]2O[C@@]3(C)CC[C@H]4[C@H](C)CC[C@@H]1[C@@]24OO3 | 100

tested on: A 172; test: Cytotoxicity against human A-172 cells assessed as cell growth inhibition measured after 48 hrs by MTT assay; type: functional; conditions: not given

Row | SMILES | GI50 [nM]
18 | C[C@H]1[C@H](n2cc(-c3ccccc3)nn2)O[C@@H]2O[C@@]3(C)CC[C@H]4[C@H](C)CC[C@@H]1[C@@]24OO3 | 50
19 | C[C@@H]1[C@@H](n2cc(-c3ccc(F)cc3)nn2)O[C@@H]2O[C@@]3(C)CC[C@H]4[C@H](C)CC[C@@H]1[C@@]24OO3 | 30
20 | COc1ccc(-c2cnnn2[C@@H]2O[C@@H]3O[C@@]4(C)CC[C@H]5[C@H](C)CC[C@@H]([C@H]2C)[C@@]35OO4)cc1 | 40
21 | C[C@H]1[C@H](n2nncc2-c2ccc(F)cc2)O[C@@H]2O[C@@]3(C)CC[C@H]4[C@H](C)CC[C@@H]1[C@@]24OO3 | 40

tested on: B16; test: Cytotoxicity against mouse B16 cells assessed as cell growth inhibition measured after 48 hrs by MTT assay; type: functional; conditions: not given

Row | SMILES | GI50 [nM]
22 | C[C@H]1[C@H](n2cc(-c3ccccc3)nn2)O[C@@H]2O[C@@]3(C)CC[C@H]4[C@H](C)CC[C@@H]1[C@@]24OO3 | 50
23 | C[C@@H]1[C@@H](n2cc(-c3ccc(F)cc3)nn2)O[C@@H]2O[C@@]3(C)CC[C@H]4[C@H](C)CC[C@@H]1[C@@]24OO3 | 30
24 | COc1ccc(-c2cnnn2[C@@H]2O[C@@H]3O[C@@]4(C)CC[C@H]5[C@H](C)CC[C@@H]([C@H]2C)[C@@]35OO4)cc1 | 40
25 | C[C@H]1[C@H](n2nncc2-c2ccc(F)cc2)O[C@@H]2O[C@@]3(C)CC[C@H]4[C@H](C)CC[C@@H]1[C@@]24OO3 | 40

tested on: DLD-1; test: Cytotoxicity against human DLD-1 cells assessed as cell growth inhibition measured after 48 hrs by MTT assay; type: functional; conditions: not given

Row | SMILES | GI50 [nM]
26 | C[C@H]1[C@H](n2cc(-c3ccccc3)nn2)O[C@@H]2O[C@@]3(C)CC[C@H]4[C@H](C)CC[C@@H]1[C@@]24OO3 | 50
27 | C[C@@H]1[C@@H](n2cc(-c3ccc(F)cc3)nn2)O[C@@H]2O[C@@]3(C)CC[C@H]4[C@H](C)CC[C@@H]1[C@@]24OO3 | 30
28 | COc1ccc(-c2cnnn2[C@@H]2O[C@@H]3O[C@@]4(C)CC[C@H]5[C@H](C)CC[C@@H]([C@H]2C)[C@@]35OO4)cc1 | 40
29 | C[C@H]1[C@H](n2nncc2-c2ccc(F)cc2)O[C@@H]2O[C@@]3(C)CC[C@H]4[C@H](C)CC[C@@H]1[C@@]24OO3 | 40

tested on: HeLa; test: Antiproliferative activity against human HeLa cells assessed as reduction in cell viability measured for 72 hrs by MTT assay; type: functional, cell-based; conditions: not given

Row | SMILES | IC50 [nM]
30 | COc1ccc(/C=C/C(=O)c2ccc(COCC(=O)N[C@H]3O[C@@H]4O[C@@]5(C)CC[C@H]6[C@H](C)CC[C@@H]([C@H]3C)[C@@]46OO5)cc2)c(OC)c1OC | 90
31 | C[C@H]1[C@H](NC(=O)COCc2ccc(C(=O)/C=C/c3cccc(Cl)c3Cl)cc2)O[C@@H]2O[C@@]3(C)CC[C@H]4[C@H](C)CC[C@@H]1[C@@]24OO3 | 100
32 | C[C@H]1[C@H](NC(=O)COCc2ccc(C(=O)/C=C/c3ccc(Cl)cc3F)cc2)O[C@@H]2O[C@@]3(C)CC[C@H]4[C@H](C)CC[C@@H]1[C@@]24OO3 | 100

tested on: MDA-MB-231; test: Antiproliferative activity against human MDA-MB-231 cells assessed as reduction in cell viability measured for 72 hrs by MTT assay; type: functional, cell-based; conditions: MDA-MB-231, 72 h

Row | SMILES | IC50 [nM]
33 | COc1ccc(/C=C/C(=O)c2ccc(COCC(=O)N[C@H]3O[C@@H]4O[C@@]5(C)CC[C@H]6[C@H](C)CC[C@@H]([C@H]3C)[C@@]46OO5)cc2)c(OC)c1OC | 90
34 | C[C@H]1[C@H](NC(=O)COCc2ccc(C(=O)/C=C/c3cccc(Cl)c3Cl)cc2)O[C@@H]2O[C@@]3(C)CC[C@H]4[C@H](C)CC[C@@H]1[C@@]24OO3 | 100
35 | C[C@H]1[C@H](NC(=O)COCc2ccc(C(=O)/C=C/c3ccc(Cl)cc3F)cc2)O[C@@H]2O[C@@]3(C)CC[C@H]4[C@H](C)CC[C@@H]1[C@@]24OO3 | 100

tested on: SiHa; test: Cytotoxicity against human SiHa cells assessed as cell growth inhibition measured after 48 hrs by MTT assay; type: functional; conditions: not given

Row | SMILES | GI50 [nM]
36 | C[C@H]1[C@H](n2cc(-c3ccccc3)nn2)O[C@@H]2O[C@@]3(C)CC[C@H]4[C@H](C)CC[C@@H]1[C@@]24OO3 | 50
37 | C[C@@H]1[C@@H](n2cc(-c3ccc(F)cc3)nn2)O[C@@H]2O[C@@]3(C)CC[C@H]4[C@H](C)CC[C@@H]1[C@@]24OO3 | 30
38 | COc1ccc(-c2cnnn2[C@@H]2O[C@@H]3O[C@@]4(C)CC[C@H]5[C@H](C)CC[C@@H]([C@H]2C)[C@@]35OO4)cc1 | 40
39 | C[C@H]1[C@H](n2nncc2-c2ccc(F)cc2)O[C@@H]2O[C@@]3(C)CC[C@H]4[C@H](C)CC[C@@H]1[C@@]24OO3 | 40
